Measurements as given in PubChem BioAssay AID1918938 (Molecular Pharmacology Branch, DTP, NCI, 2023).

System: 556581-035-R-J1-PDC complex spheroid viability
Assay: Anticancer human tumor 556581-035-R-J1-PDC patient-derived ovarian carcinoma cell line growth inhibition
Details: for IC50: curve of first compound; for viability, T/C: stronger effect = lower value
How it was run: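 Drug combinations with the LSD1 inhibitor iadademstat tested on tumor cells co-cultured as spheroids with endothelial cells and mesenchymal stem cells. Concentrations descended in half-log increments from clinical Cmax or 10 microM.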
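Further: spheroids exposed to agents for seven days.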
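Wherever viability, T/C is given: 100% = DMSO vehicle control wells.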

Nc1ccccc1NC(=O)c1ccc(CNC(=O)OCc2cccnc2)cc1 + NC1CCC(NC2CC2c2ccccc2)CC1
IC50 (second compound 0.1 µM): 124 nM | IC50 (second compound 0.316 µM): 103 nM | IC50 (second compound 1 µM): 111 nM | IC50 (second compound 3.16 µM): 69.9 nM | IC50 (second compound 10 µM): 32.2 nM | viability, T/C (second compound 0.1 µM, first compound 0.00949 µM): 82.9% | viability, T/C (second compound 0.1 µM, first compound 0.03 µM): 74.9% | viability, T/C (second compound 0.1 µM, first compound 0.0949 µM): 56.4% | viability, T/C (second compound 0.1 µM, first compound 0.3 µM): 28.5% | viability, T/C (second compound 0.1 µM, first compound 0.949 µM): 17.6% | viability, T/C (second compound 0.1 µM, first compound 3 µM): 1.21% | viability, T/C (second compound 0.316 µM, first compound 0.00949 µM): 77.4% | viability, T/C (second compound 0.316 µM, first compound 0.03 µM): 66.9% | viability, T/C (second compound 0.316 µM, first compound 0.0949 µM): 53.4% | viability, T/C (second compound 0.316 µM, first compound 0.3 µM): 28.7% | viability, T/C (second compound 0.316 µM, first compound 0.949 µM): 15.9% | viability, T/C (second compound 0.316 µM, first compound 3 µM): 1.67% | viability, T/C (second compound 1 µM, first compound 0.00949 µM): 69% | viability, T/C (second compound 1 µM, first compound 0.03 µM): 71.6% | viability, T/C (second compound 1 µM, first compound 0.0949 µM): 49.6% | viability, T/C (second compound 1 µM, first compound 0.3 µM): 32.1% | viability, T/C (second compound 1 µM, first compound 0.949 µM): 17.1% | viability, T/C (second compound 1 µM, first compound 3 µM): 0.88% | viability, T/C (second compound 3.16 µM, first compound 0.00949 µM): 79.5% | viability, T/C (second compound 3.16 µM, first compound 0.03 µM): 61.3% | viability, T/C (second compound 3.16 µM, first compound 0.0949 µM): 47.6% | viability, T/C (second compound 3.16 µM, first compound 0.3 µM): 26.4% | viability, T/C (second compound 3.16 µM, first compound 0.949 µM): 18.2% | viability, T/C (second compound 3.16 µM, first compound 3 µM): 1.11% | viability, T/C (second compound 10 µM, first compound 0.00949 µM): 74% | viability, T/C (second compound 10 µM, first compound 0.03 µM): 49% | viability, T/C (second compound 10 µM, first compound 0.0949 µM): 35.8% | viability, T/C (second compound 10 µM, first compound 0.3 µM): 17% | viability, T/C (second compound 10 µM, first compound 0.949 µM): 9.24% | viability, T/C (second compound 10 µM, first compound 3 µM): 0.63%

Cn1ncnc1C1c2n[nH]c(=O)c3cc(F)cc(c23)NC1c1ccc(F)cc1 (stereo not given) + NC1CC1c1ccc(-c2cccc(O)c2)cc1
IC50 (second compound 0.1 µM): > 100 nM | IC50 (second compound 0.316 µM): > 100 nM | IC50 (second compound 1 µM): > 100 nM | IC50 (second compound 3.16 µM): > 100 nM | IC50 (second compound 10 µM): > 100 nM | viability, T/C (second compound 0.1 µM, first compound 0.000316 µM): 90.1% | viability, T/C (second compound 0.1 µM, first compound 0.001 µM): 89.6% | viability, T/C (second compound 0.1 µM, first compound 0.00316 µM): 87.5% | viability, T/C (second compound 0.1 µM, first compound 0.01 µM): 88.7% | viability, T/C (second compound 0.1 µM, first compound 0.0316 µM): 96.2% | viability, T/C (second compound 0.1 µM, first compound 0.1 µM): 81.4% | viability, T/C (second compound 0.316 µM, first compound 0.000316 µM): 89.6% | viability, T/C (second compound 0.316 µM, first compound 0.001 µM): 98.1% | viability, T/C (second compound 0.316 µM, first compound 0.00316 µM): 80.3% | viability, T/C (second compound 0.316 µM, first compound 0.01 µM): 84.9% | viability, T/C (second compound 0.316 µM, first compound 0.0316 µM): 94.5% | viability, T/C (second compound 0.316 µM, first compound 0.1 µM): 74.1% | viability, T/C (second compound 1 µM, first compound 0.000316 µM): 82.8% | viability, T/C (second compound 1 µM, first compound 0.001 µM): 88.5% | viability, T/C (second compound 1 µM, first compound 0.00316 µM): 109% | viability, T/C (second compound 1 µM, first compound 0.01 µM): 81.6% | viability, T/C (second compound 1 µM, first compound 0.0316 µM): 87% | viability, T/C (second compound 1 µM, first compound 0.1 µM): 81.8% | viability, T/C (second compound 3.16 µM, first compound 0.000316 µM): 94.4% | viability, T/C (second compound 3.16 µM, first compound 0.001 µM): 90% | viability, T/C (second compound 3.16 µM, first compound 0.00316 µM): 81.5% | viability, T/C (second compound 3.16 µM, first compound 0.01 µM): 80.5% | viability, T/C (second compound 3.16 µM, first compound 0.0316 µM): 77.7% | viability, T/C (second compound 3.16 µM, first compound 0.1 µM): 91.6% | viability, T/C (second compound 10 µM, first compound 0.000316 µM): 86.8% | viability, T/C (second compound 10 µM, first compound 0.001 µM): 83.2% | viability, T/C (second compound 10 µM, first compound 0.00316 µM): 86.5% | viability, T/C (second compound 10 µM, first compound 0.01 µM): 87.2% | viability, T/C (second compound 10 µM, first compound 0.0316 µM): 75.3% | viability, T/C (second compound 10 µM, first compound 0.1 µM): 88.2%
